SMILES strings stand for the structures.

Type in all cases: in vivo
The test system of experiment [1] is green peach aphids (Myzus persicae). Description: Insecticidal test for green peach aphids. The settings on record: Myzus persicae, foliar, 144 h; 500 ppm chemical solution sprinkled (2.5 mg/cm^2), wingless imagoes on leaf disc, six days, 25°C; read-out: death rate. The method, then: Wet absorbent cotton was laid on each glass dish having an inner diameter of 3 cm, a Chinese olive leaf cut into a circle having a diameter of 3 cm was placed thereon, and four wingless green peach aphids (Myzus persicae) imagoes were released. After a day, a 10% by mass emulsion of the presently invented compound prepared according to the above formulation example for an emulsion was diluted with water containing a spreader to prepare a chemical solution having a concentration of 500 ppm. The chemical solution prepared was sprinkled (2.5 mg/cm^2) with a rotary tower sprinkler, and the dishes were capped and accommodated in a thermostatic room at 25°C. […] The test was carried out in duplicate.

Experiment [2] deals with diamondback moths (Plutella xylostella). Put plainly: Insecticidal test for diamondback moths. The note with it: Plutella xylostella, 144 h; 500 ppm chemical solution, leaves soaked, third-instar larvae, six days, 25°C; read-out: death rate. In a few lines: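 Leaves dipped about 10 s in a 500 ppm aqueous dilution of an emulsion formulation with spreader, then air-dried. Five third-instar larvae released per dish and held at 25 °C. Tested in duplicate.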

The test system of experiment [3] is brown rice planthoppers (Nilaparvata lugens). Description: Insecticidal test for brown rice planthoppers. The settings on record: Nilaparvata lugens, 144 h; 500 ppm chemical solution, rice leaf sheaths soaked, third-instar larvae, six days, 25°C; read-out: death rate. The method in brief: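 Rice leaf sheaths dipped ~10 s in 500 ppm compound solution (emulsion diluted in water with spreader), air-dried, then infested with five third-instar larvae per tube at 25 °C. Mortality scored after 6 days, death rate calculated, in duplicate.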

The test system of experiment [4] is cat fleas (Ctenocephalides felis). Description: whole plant or invertebrate. The settings on record: 72 h, read-out: death rate. In a few lines:
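Glass containers (25 cm² inner surface) were coated with 250 µl of a 1000 ppm acetone solution, and the acetone was evaporated to leave a dry film. Five mixed-sex adult fleas were confined per container at 25°C. Mortality was scored after 3 days.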

Experiment [5] has as its system western flower thrips (Frankliniella occidentalis). Put plainly: Insecticidal activity against western flower thrips. The note with it: Frankliniella occidentalis, 48 h; 500 ppm chemical solution sprinkled (2.5 mg/cm^2), larvae on common bean leaf, after 2 days; read-out: death rate. In a few lines: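 Bean leaf squares on wet filter paper inoculated with 20 larvae. Compound emulsion diluted with spreader-containing water to 500 ppm and sprayed at 2.5 mg/cm^2 by rotary tower. Run in duplicate.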

Regarding `O=C(Nc1ncc(Cl)cn1)C1=C(O)CC(c2cnc(Cl)c(-c3cccnc3)c2)NC1=O` (stereo not shown) [2-100], the mortality at 500 µg/mL in experiment [1], in experiment [2], in experiment [3] and in experiment [5] was at least 90% in each case. For the same molecule, the mortality at 10 µg/cm2 in experiment [4] is at least 50%.

On to `O=C(Nc1ccc(F)cn1)C1=C(O)CC(c2nc(-c3ccncc3Cl)no2)NC1=O` (stereo not shown) [3-236], for which the mortality at 500 µg/mL in experiment [1], in experiment [2], in experiment [3] and in experiment [5] was at least 90% each time. Further, in experiment [4], the mortality at 10 µg/cm2 was at least 50%.

Turning to `O=C(Nc1cnccc1Cl)C1=C(O)CC(c2nc(-c3ccncc3Cl)no2)NC1=O` (stereo not shown) [3-228], the mortality at 500 µg/mL in experiment [1], in experiment [2], in experiment [3] and in experiment [5] was at least 90% throughout. Further, in experiment [4], the mortality at 10 µg/cm2 is at least 50%.

Regarding `O=C(Nc1ccc(F)cc1)C1=C(O)CC(c2ccc(C(F)(F)F)c(-c3ccc(F)nc3)c2)NC1=O` (stereo not shown) [1-001, N-(4-fluorophenyl)-6-[3-(6-fluoropyridin-3-yl)-4-(trifluoromethyl)phenyl]-4-hydroxy-2-oxo-1,2,5,6-tetrahydropyridine-3-carboxamide], the mortality at 500 µg/mL in experiment [1], in experiment [2], in experiment [3] and in experiment [5] was at least 90% throughout. Moreover, in experiment [4], the mortality at 10 µg/cm2 is at least 50%.

As for `O=C(Nc1cnc(Cl)cn1)C1=C(O)CC(c2cnc(Cl)c(-c3cccnc3)c2)NC1=O` (stereo not shown) [2-098], the mortality at 500 µg/mL in experiment [1], in experiment [2] and in experiment [3] was at least 90% each time. Moreover, in experiment [4], the mortality at 10 µg/cm2 was at least 50%.

`O=C(Nc1cc(F)ccn1)C1=C(O)CC(c2nc(-c3ccccc3F)no2)NC1=O` (stereo not shown) [3-058]: the mortality at 500 µg/mL in experiment [1], in experiment [2], in experiment [3] and in experiment [5] was at least 90% in each case. For the same molecule, the mortality at 10 µg/cm2 in experiment [4] is at least 50%.

Consider `O=C(Nc1cnc(Cl)cn1)C1=C(O)CC(c2nc(-c3ccnc(Cl)c3)no2)NC1=O` (stereo not shown) [3-268], for which the mortality at 500 µg/mL in experiment [1], in experiment [2], in experiment [3] and in experiment [5] was at least 90% in each case. The mortality at 10 µg/cm2 in experiment [4] is at least 50%.

`O=C(Nc1ccc(Cl)cc1)C1=C(O)CC(c2cnc(Cl)c(-c3ccc(F)nc3)c2)NC1=O` (stereo not shown) [2-035, 6'-chloro-N-(4-chlorophenyl)-6"-fluoro-4-hydroxy-6-oxo-1,2,3,6-tetrahydro-[2,3':5',3"-terpyridine]-5-carboxamide]: the mortality at 500 µg/mL in experiment [1], in experiment [2], in experiment [3] and in experiment [5] was at least 90% in each case. Further, the mortality at 10 µg/cm2 in experiment [4] was at least 50%.

For `O=C(Nc1ccc(F)cc1)C1=C(O)CC(c2nc(-c3cccc(F)c3F)no2)NC1=O` (stereo not shown) [3-033], the mortality at 500 µg/mL in experiment [1], in experiment [2] and in experiment [3] was at least 90% in each case. For the same molecule, the mortality at 10 µg/cm2 in experiment [4] is at least 50%.

Consider `N#Cc1ccc(NC(=O)C2=C(O)CC(c3cnc(Cl)c(-c4cccnc4)c3)NC2=O)cn1` (stereo not shown) [2-097], for which the mortality at 500 µg/mL in experiment [1], in experiment [2] and in experiment [3] was at least 90% each time. Also, in experiment [4], the mortality at 10 µg/cm2 is at least 50%.

`O=C(Nc1ccc(F)cc1)C1=C(O)CC(c2nc(-c3cccc(F)c3)no2)NC1=O` (stereo not shown) [3-011]: the mortality at 500 µg/mL in experiment [1], in experiment [2], in experiment [3] and in experiment [5] was at least 90% in each case. In addition, the mortality at 10 µg/cm2 in experiment [4] was at least 50%.

Consider `O=C(Nc1cc(F)ccn1)C1=C(O)CC(c2nc(-c3ccccc3)no2)NC1=O` (stereo not shown) [3-055], for which the mortality at 500 µg/mL in experiment [1], in experiment [2], in experiment [3] and in experiment [5] was at least 90% in each case. Moreover, the mortality at 10 µg/cm2 in experiment [4] was at least 50%.

Take `O=C(Nc1ccc(Cl)nc1)C1=C(O)CC(c2cnc(Cl)c(-c3ccc(F)nc3)c2)NC1=O` (stereo not shown) [2-010]: the mortality at 500 µg/mL in experiment [1], in experiment [2], in experiment [3] and in experiment [5] was at least 90% in each case. Also, in experiment [4], the mortality at 10 µg/cm2 is at least 50%.

For the molecule `O=C(Nc1cnccc1F)C1=C(O)CC(c2cnc(Cl)c(-c3cncc(Cl)c3)c2)NC1=O` (stereo not shown) [2-146], the mortality at 500 µg/mL in experiment [1], in experiment [2], in experiment [3] and in experiment [5] was at least 90% throughout. The mortality at 10 µg/cm2 in experiment [4] was at least 50%.

Take `O=C(Nc1ccc(F)nc1)C1=C(O)CC(c2cnc(Cl)c(-c3ccccc3)c2)NC1=O` (stereo not shown) [2-091]: the mortality at 500 µg/mL in experiment [1], in experiment [2], in experiment [3] and in experiment [5] was at least 90% throughout. Also, the mortality at 10 µg/cm2 in experiment [4] is at least 50%.

For the molecule `O=C(Nc1ccc(F)cc1)C1=C(O)CC(c2ccc(C(F)(F)F)c(-c3ccncc3)c2)NC1=O` (stereo not shown) [1-014], the mortality at 500 µg/mL in experiment [1], in experiment [2], in experiment [3] and in experiment [5] was at least 90% each time. Moreover, the mortality at 10 µg/cm2 in experiment [4] is at least 50%.

With `Cc1cccc(-c2noc(C3CC(O)=C(C(=O)Nc4cc(F)ccn4)C(=O)N3)n2)c1` (stereo not shown) [3-053], the mortality at 500 µg/mL in experiment [1], in experiment [2] and in experiment [3] was at least 90% throughout. Moreover, the mortality at 10 µg/cm2 in experiment [4] is at least 50%.

As for `O=C(Nc1cc(F)ccn1)C1=C(O)CC(c2nc(-c3ccc(F)cc3)no2)NC1=O` (stereo not shown) [3-056], the mortality at 500 µg/mL in experiment [1], in experiment [2], in experiment [3] and in experiment [5] was at least 90% in each case. Moreover, the mortality at 10 µg/cm2 in experiment [4] was at least 50%.

Take `O=C(Nc1cc(Br)ccn1)C1=C(O)CC(c2nc(-c3ccncc3Cl)no2)NC1=O` (stereo not shown) [3-232]: the mortality at 500 µg/mL in experiment [1], in experiment [2], in experiment [3] and in experiment [5] was at least 90% each time. Moreover, the mortality at 10 µg/cm2 in experiment [4] is at least 50%.

On to `O=C(Nc1ccccn1)C1=C(O)CC(c2nc(-c3ccc(F)cc3F)no2)NC1=O` (stereo not shown) [3-132], for which the mortality at 500 µg/mL in experiment [1], in experiment [2], in experiment [3] and in experiment [5] was at least 90% each time. Also, the mortality at 10 µg/cm2 in experiment [4] was at least 50%.

`O=C(Nc1ccc(F)cc1)C1=C(O)CC(c2cnc(Cl)c(-c3cncc(F)c3)c2)NC1=O` (stereo not shown) [2-058]: the mortality at 500 µg/mL in experiment [1], in experiment [2], in experiment [3] and in experiment [5] was at least 90% throughout. Also, in experiment [4], the mortality at 10 µg/cm2 was at least 50%.

On to `O=C(Nc1cnc(Cl)cn1)C1=C(O)CC(c2nc(-c3ccc(F)nc3)no2)NC1=O` (stereo not shown) [3-269], for which the mortality at 500 µg/mL in experiment [1], in experiment [2], in experiment [3] and in experiment [5] was at least 90% throughout. Moreover, in experiment [4], the mortality at 10 µg/cm2 was at least 50%.

Consider `O=C(Nc1cnc(Br)cn1)C1=C(O)CC(c2cnc(Cl)c(-c3cccnc3)c2)NC1=O` (stereo not shown) [2-099], for which the mortality at 500 µg/mL in experiment [1], in experiment [2], in experiment [3] and in experiment [5] was at least 90% throughout. For the same molecule, the mortality at 10 µg/cm2 in experiment [4] is at least 50%.

As to `O=C(Nc1nccs1)C1=C(O)CC(c2nc(-c3ccncc3F)no2)NC1=O` (stereo not shown) [3-246], the mortality at 500 µg/mL in experiment [1], in experiment [2], in experiment [3] and in experiment [5] was at least 90% in each case. Moreover, the mortality at 10 µg/cm2 in experiment [4] was at least 50%.

In the case of `CS(=O)(=O)c1ccc(-c2cc(C3CC(O)=C(C(=O)Nc4ccc(F)cc4)C(=O)N3)ccc2C(F)(F)F)cc1` (stereo not shown) [1-019], the mortality at 500 µg/mL in experiment [1], in experiment [2] and in experiment [5] was at least 90% each time. For the same molecule, in experiment [4], the mortality at 10 µg/cm2 was at least 50%.

As to `CSc1ccccc1-c1cc(C2CC(O)=C(C(=O)Nc3ccc(F)cc3)C(=O)N2)ccc1C(F)(F)F` (stereo not shown) [1-008], the mortality at 500 µg/mL in experiment [1], in experiment [2] and in experiment [5] was at least 90% in each case. In addition, in experiment [4], the mortality at 10 µg/cm2 was at least 50%.

These data come from patent publication EP4582413A1, “ARYLTETRAHYDROPYRIDINE COMPOUND AND PEST CONTROL AGENT” (priority 2022, dated 2024).
